Data taken from patent publication US8609652B2, “Method of administering a methylene blue-curcumin analog for the treatment of alzheimer's disease” (DePuy Synthes Products, LLC, priority 2009, dated 2013).
Entries after “also recorded” stand apart in the source; their conditions may differ. Like-named read-outs stand apart in the source and are kept apart here.

Columns and labels:
[1] = test system: AD patients' macrophages; details: cited from earlier work
[2] = test system: PC12 cells; assay: relative potency versus curcumin in in vitro protection of PC12 cells against beta amyloid insult; type: cell-based
From the text: Each of the parent compounds may be obtained by the methods disclosed in Park.
It is further observed that both of these qualities can be placed into the same molecule (35).

[3] = test system: PC12 cells, βA (25-35); details: cited from earlier work
[4] = test system: PC12 cells, βA (1-42); details: cited from earlier work
[5] = 10 mg/ml patch, 0.1 mA/cm^2 current density; cited from earlier work
[6] = test system: UGT enzymes; details: cited from earlier work
[7] = test system: enzymatic glucuronidation activity; details: concentrations in excess of about 10 mM; cited from earlier work
[8] = in vivo, 1 mg/kg; cited from earlier work
[9] = in vivo, 1 mg/kg
From the text: In some embodiments, the water-soluble ester prodrug is created by reacting the phenolic parent compound with dimethylglycine. The literature reports rendering lipophilic phenolic compounds water soluble by reacting the phenolic parent compound with dimethylglycine. […]. Al-Ghananeem concluded that the prodrug provides for targeted intranasal delivery of 17B-estradiol to the brain.

[10] = pH 4, 25° C.; cited from earlier work
[11] = test system: rate of cognitive decline; details: 19 month period; cited from earlier work
[12] = test system: neuronal mitochondrial complex IV; details: cited from earlier work
[13] = test system: tau filaments; details: cited from earlier work
[14] = cited from earlier work; for serum Cmax: volunteers
[15] = cited from earlier work
[16] = target: MRP2 (Homo sapiens, UniProt Q92887); details: read-out: IC50, MRP-2-mediated transport; Wortelboer; cited from earlier work
Sequence of MRP2 (Q92887 whole entry): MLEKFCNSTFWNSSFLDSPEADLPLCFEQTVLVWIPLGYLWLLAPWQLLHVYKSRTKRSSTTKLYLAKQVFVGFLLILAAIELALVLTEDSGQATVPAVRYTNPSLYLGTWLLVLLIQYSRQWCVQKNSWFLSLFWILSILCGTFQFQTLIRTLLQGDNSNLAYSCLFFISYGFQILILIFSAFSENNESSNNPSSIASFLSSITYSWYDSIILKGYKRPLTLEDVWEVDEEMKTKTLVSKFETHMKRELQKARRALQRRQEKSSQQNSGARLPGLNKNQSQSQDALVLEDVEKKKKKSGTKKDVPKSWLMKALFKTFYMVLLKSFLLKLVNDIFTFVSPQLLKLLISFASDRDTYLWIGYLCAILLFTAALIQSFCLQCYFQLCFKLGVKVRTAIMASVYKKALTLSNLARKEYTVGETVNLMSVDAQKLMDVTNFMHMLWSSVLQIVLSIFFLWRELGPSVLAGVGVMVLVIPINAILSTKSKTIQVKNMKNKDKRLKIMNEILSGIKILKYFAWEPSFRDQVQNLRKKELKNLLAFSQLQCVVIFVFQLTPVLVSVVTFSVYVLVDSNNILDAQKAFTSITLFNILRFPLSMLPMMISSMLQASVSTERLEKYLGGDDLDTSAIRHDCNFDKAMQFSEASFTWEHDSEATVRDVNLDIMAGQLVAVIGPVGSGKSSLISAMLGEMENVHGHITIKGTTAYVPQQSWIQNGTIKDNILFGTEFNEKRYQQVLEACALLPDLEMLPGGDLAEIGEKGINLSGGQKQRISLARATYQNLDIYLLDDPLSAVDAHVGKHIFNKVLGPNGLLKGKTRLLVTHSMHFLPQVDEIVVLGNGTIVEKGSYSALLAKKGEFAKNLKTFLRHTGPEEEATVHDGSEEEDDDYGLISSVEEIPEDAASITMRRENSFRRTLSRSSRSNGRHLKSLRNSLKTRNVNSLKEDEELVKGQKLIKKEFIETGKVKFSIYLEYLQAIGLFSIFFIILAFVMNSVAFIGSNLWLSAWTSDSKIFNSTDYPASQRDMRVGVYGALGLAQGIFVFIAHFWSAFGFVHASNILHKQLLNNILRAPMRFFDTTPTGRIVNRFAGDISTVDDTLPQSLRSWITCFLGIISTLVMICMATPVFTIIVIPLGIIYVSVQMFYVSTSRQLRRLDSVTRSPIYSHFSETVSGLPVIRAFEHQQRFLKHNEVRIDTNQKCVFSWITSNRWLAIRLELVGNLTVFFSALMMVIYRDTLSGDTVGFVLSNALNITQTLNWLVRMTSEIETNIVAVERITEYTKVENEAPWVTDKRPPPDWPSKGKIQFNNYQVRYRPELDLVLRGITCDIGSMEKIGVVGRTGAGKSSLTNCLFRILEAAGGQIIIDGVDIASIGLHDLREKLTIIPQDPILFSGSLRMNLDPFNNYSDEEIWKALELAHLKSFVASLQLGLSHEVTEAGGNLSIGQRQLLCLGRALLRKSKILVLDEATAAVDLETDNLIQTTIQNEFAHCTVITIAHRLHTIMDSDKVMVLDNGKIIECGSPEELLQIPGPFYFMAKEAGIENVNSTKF

[17] = oral dosing, cited from earlier work
[18] = brain tissue concentration after curcumin injection (Wang); details: injection of 30 mg/kg
[19] = test system: amyloid plaques; details: injected peripherally, aged Tg mice; cited from earlier work
[20] = predicted curcumin levels from transdermal iontophoresis of charged curcumin prodrugs; type: in vivo, human
[21] = target: T1, UGT1A1 (Homo sapiens, UniProt P22309); details: about one hour after exposure; cited from earlier work
T1 sequence (P22309 26-533): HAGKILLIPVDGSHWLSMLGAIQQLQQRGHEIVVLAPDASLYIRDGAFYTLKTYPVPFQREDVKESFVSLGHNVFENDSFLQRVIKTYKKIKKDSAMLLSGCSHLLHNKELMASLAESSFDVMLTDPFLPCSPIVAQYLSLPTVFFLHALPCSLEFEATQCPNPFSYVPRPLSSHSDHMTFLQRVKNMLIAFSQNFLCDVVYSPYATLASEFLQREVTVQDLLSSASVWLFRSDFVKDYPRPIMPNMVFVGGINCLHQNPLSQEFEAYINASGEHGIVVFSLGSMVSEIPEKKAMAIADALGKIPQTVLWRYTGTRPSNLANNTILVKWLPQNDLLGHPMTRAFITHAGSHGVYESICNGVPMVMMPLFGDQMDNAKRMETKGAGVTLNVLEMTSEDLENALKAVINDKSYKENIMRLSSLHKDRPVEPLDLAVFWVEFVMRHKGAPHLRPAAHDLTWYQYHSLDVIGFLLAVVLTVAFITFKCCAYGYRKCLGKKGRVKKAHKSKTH

[22] = cited from earlier work; remark: listed apart in the source
[23] = test system: beta-amyloid aggregation; details: cited from earlier work
[24] = cited from earlier work; remark: listed apart in the source
[25] = target: plasma membrane binding sites for resveratrol; details: rat brain; cited from earlier work
[26] = test system: cultured hippocampal cells; details: cited from earlier work
[27] = test system: rat hippocampal neurons; details: cited from earlier work
[28] = iontophoresis of 100 mg for 20 minutes; cited from earlier work
[29] = reservoir concentration about 25-50 mg/ml

O=C(C=Cc1ccc(O)cc1)CC(=O)C=Cc1ccc(O)cc1 [compound 33, 1,7-bis(4-hydroxyphenyl)-1,6-heptadiene-3,5-dione]
optimum concentration [1]: 0.1 µM
fold more potent than curcumin as neuroprotectant against beta amyloid ([2]; analysis of the Kim data): ~2 fold
fold more potent than curcumin as neuroprotectant against beta amyloid ([2]; analysis of the Park data): 3 fold
anti-BA (25-35) ED50 ([3]; Kim): 3.5 ± 0.2 µg/mL
anti-βA (25-35) ED50 ([3]; Park, concentration required to achieve 50% cell viability): 2.0 ± 0.6 µg/mL
anti-BA (1-42) ED50 ([4]; Kim): 3.0 ± 0.3 µg/mL
anti-βA (1-42) ED50 ([4]; Park): 3.5 ± 0.7 µg/mL

CC(C)NCC(O)COc1cccc2ccccc12 (stereo not shown) [propranolol]
Cmax serum concentration [5]: about 200 ng/ml

Triton X-100
inhibition of several UGT enzymes [6]: nearly fully inhibited

[Mg+2] [Mg^+2]
inhibition of enzymatic glucuronidation activity [7]: about 85%

CN(C)CCCC(=O)O[C@H]1CC[C@H]2[C@@H]3CCc4cc(O)ccc4[C@H]3CC[C@]12C.Cl [17-DMABE2HCl, 17-N,N dimethylamino butyl ester HCl]
peak cerebrospinal fluid (CSF) concentration of estradiol [8]: about 30 ng/ml
peak CSF concentration (molar) [9]: about 0.075 μM
shelf life of nasal spray solution [10]: approximately 19 months

CN(C)CCCC(=O)Oc1ccc2c(c1)CC[C@@H]1[C@@H]2CC[C@]2(C)[C@@H](O)CC[C@@H]12.Cl [3-DMABE2-HCl, 3-N,N dimethylamino butyl ester HCl]
peak cerebrospinal fluid (CSF) concentration of estradiol [8]: about 66 ng/ml
peak CSF concentration (molar) [9]: ~0.15 µM

CN(C)c1ccc2nc3ccc(=[N+](C)C)cc-3sc2c1 [methylene blue]
decrease in the rate of cognitive decline as compared to controls [11]: 81%
enhancement of cellular oxygen consumption [12]: 37-70%
increase of neuronal mitochondrial complex IV [12]: 30%
formation of tau filaments [13]: inhibits the formation of tau filaments

COc1cc(/C=C/C(=O)CC(=O)/C=C/c2ccc(O)c(OC)c2)ccc1O [curcumin, (E,E)-1,7-bis(4-hydroxy-3-methoxyphenyl)-1,6-heptadiene-3,5,-dione]
AUC ([14]; Shoba, Oral + piperine): 80 ng·h/mL
AUC ([14]; Shoba, Oral Dosing): 4 ng·h/mL
serum Cmax ([14]; Shoba, 2 g/day oral curcumin supplemented with piperine, second of two values): 180 ng/mL
serum Cmax ([14]; Shoba, 2 g/day oral curcumin, first of two values): 6 ng/mL
AUC ([14]; Vareed, Oral Dosing): ~30 ng·h/mL
area-under-the-curve (AUC) ([14]; dose of about 11 g, healthy volunteers, conjugated curcumin (Vareed)): about 30 μg/ml·hr
clearance ([14]; oral dosing of curcumin plus piperine (Shoba)): 7.33 L/h
solubility in water of the unmodified compound [15]: about 0.004 mg/ml
IC50 [16]: 5 µM
clearance ([17]; curcumin alone (Shoba)): 495 L/h
clearance ([17]; curcumin with piperine (Shoba)): 713 L/h
peak curcumin concentration in brain tissue (molar) [18]: about 0.40 uM
blood brain barrier crossing and plaque binding [19]: crossed the blood brain barrier and bound amyloid plaques
predicted flux ([20]; divalent curcumin salt): about 800 μg/(cm^2·h)
predicted plasma concentration ([20]; divalent curcumin salt): about 0.3 μM
predicted flux [20, 29]: about 400 μg/(cm^2·h)
predicted plasma concentration [20, 29]: about 60 ng/ml; also recorded: about 0.14 μM
predicted flux ([20]; worst case): about 35 μg/(cm^2·h)
predicted plasma concentration ([20]; worst case): about 5 ng/ml
predicted plasma concentration ([20]; worst case, flux 35, 50 cm^2, clearance 350 L/hr): 0.012 µM
inhibition of UGT1A1 [21]: about 95%
octanol/water partition coefficient log P [22]: ~3

NCCc1ccc(O)c(O)c1 [dopamine]
potency to inhibit beta-amyloid aggregation relative to curcumin [23]: about 10 times

Oc1ccc(C=Cc2cc(O)cc(O)c2)cc1 [resveratrol]
oral bioavailability [24]: about zero
solubility in water [15]: < 10 mM
Ki [25]: 0.102 µM
concentration protecting against nitric oxide related neurotoxicity [26]: 5 to 25 µM
concentration with neuroprotective effect against beta amyloid-induced neurotoxicity [27]: 20 µM
octanol/water partition coefficient log P [22]: about 3.14

O=C(OCCOCCO)c1ccccc1Nc1cccc(C(F)(F)F)c1 [etofenamate]
serum concentration [28]: about 200 ng/ml
